pEC50: −log10 of the molar value. Counter-ions that a name gives are not always drawn.
Biological target: T1, human β2 adrenergic receptor (Homo sapiens, UniProt P07550)
T1 construct: expressed in transfected cells; host or cells: CHO-K1
Experiment: Whole-cell cAMP Flashplate assay using CHO-K1 cells stably expressing human β2 adrenergic receptor
Type: cell-based
Settings: cAMP production
Procedure: The β2 adrenergic receptor, which couples to Gs proteins, activates adenylate cyclase upon agonist binding to the receptor. As a result, cAMP is produced in cells. The activation ability of the β2 adrenergic receptor can be measured by measuring the amount of the cAMP with cAMP-Screen System (Applied Biosystems).
CHO-K1 cells expressing the human β2 adrenergic receptor suspended in Ham's F-12 media containing 10% FBS were seeded into 96-well plates at a volume of 100 μL/well. Next day, they were washed with 200 μL PBS(−), to which 80 μL of 0.5 mM IBMX solution (Ham's F-12 media containing 0.05% BSA) was then added, followed by incubation for 20 minutes at 37° C. in the presence of 5% carbon dioxide. 20 μL of 9 concentrations of test compound solutions (0.5 mM IBMX solution containing 1% DMSO) prepared at concentrations in a range of 0.01-1000 nM with 2-fold serial dilution) were added, followed by incubation for 20 minutes at 37° C. in the presence of 5% carbon dioxide. Then, 100 μL of Assay/Lysis Buffer (a reagent that comes with cAMP Screen System) was added. The cells were lysed by pipetting, further incubated for 30 minutes at 37° C., and then frozen at −80° C. After several days, samples, thawed at room temperature, were treated according to the protocol of cAMP Screen System, and then chemiluminescence was measured by EnVision (PerkinElmer, Inc.). The amount of cAMP was calculated from the standard curve for the standard attached to cAMP Screen System.
The concentrations of a test compound at which 50% of its maximal effect is reached (EC50 values) were analyzed by a four-parameter logistic model using XLfit4 (IDBS, Ltd.) for the amounts of cAMP production at different concentrations of the test compounds.

T1 sequence (P07550 whole entry): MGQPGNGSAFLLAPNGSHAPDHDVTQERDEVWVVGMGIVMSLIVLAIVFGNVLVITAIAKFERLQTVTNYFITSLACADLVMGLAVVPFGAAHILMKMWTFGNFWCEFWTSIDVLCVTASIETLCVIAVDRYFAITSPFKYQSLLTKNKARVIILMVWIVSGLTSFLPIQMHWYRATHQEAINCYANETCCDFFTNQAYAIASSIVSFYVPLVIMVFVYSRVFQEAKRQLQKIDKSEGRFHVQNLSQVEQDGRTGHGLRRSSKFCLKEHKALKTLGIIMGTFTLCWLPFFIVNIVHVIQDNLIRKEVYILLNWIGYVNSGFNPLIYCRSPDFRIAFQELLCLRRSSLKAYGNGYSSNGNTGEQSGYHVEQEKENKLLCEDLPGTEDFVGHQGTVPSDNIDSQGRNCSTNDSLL

Row | pEC50 | SMILES
1 | 7.84 | C[N+]1(C)CCC(OC(=O)Nc2cc(CCC(=O)NCc3ccc(CNC[C@H](O)c4ccc(O)c5[nH]c(=O)ccc45)cc3)ccc2-c2ccccc2)CC1 [Example 65, 4-[({5-[2-({[4-({[(2R)-2-hydroxy-2-(8-hydroxy-2-oxo-1,2-dihydroquinolin-5-yl)ethyl]amino}methyl)phenyl]methyl}carbamoyl)ethyl]-2-phenylphenyl}carbamoyl)oxy]-1,1-dimethylpiperidin-1-ium trifluoroacetate]
2 | 9.70 | C[N+]1(C)CCC(OC(=O)Nc2cc(OCCCCCCNC[C@H](O)c3ccc(O)c4[nH]c(=O)ccc34)ccc2-c2ccccc2)CC1 [Example 59, 4-[({5-[(6-{[(2R)-2-hydroxy-2-(8-hydroxy-2-oxo-1,2-dihydroquinolin-5-yl)ethyl]amino}hexyl)oxy]-2-phenylphenyl}carbamoyl)oxy]-1,1-dimethylpiperidin-1-ium trifluoroacetate]
3 | 8.57 | C[N+]1(CCOc2ccccc2)CCC(OC(=O)Nc2cc(CCC(=O)Nc3ccc(CNC[C@H](O)c4ccc(O)c5[nH]c(=O)ccc45)cc3)ccc2-c2ccccc2)CC1 (stereo partly drawn) [Example 57, 4-({[5-(2-{[4-({[(2R)-2-hydroxy-2-(8-hydroxy-2-oxo-1,2-dihydroquinolin-5-yl)ethyl]amino}methyl)phenyl]carbamoyl}ethyl)-2-phenylphenyl]carbamoyl}oxy)-1-methyl-1-(2-phenoxyethyl)piperidin-1-ium trifluoro acetate]
4 | 7.90 | C[N+]1(C)CCC(OC(=O)Nc2cc(CCCC(=O)NCc3ccc(CNC[C@H](O)c4ccc(O)c5[nH]c(=O)ccc45)cc3)ccc2-c2ccccc2)CC1 [Example 66, 4-[({5-[3-({[4-({[(2R)-2-hydroxy-2-(8-hydroxy-2-oxo-1,2-dihydroquinolin-5-yl)ethyl]amino}methyl)phenyl]methyl}carbamoyl)propyl]-2-phenylphenyl}carbamoyl)oxy]-1,1-dimethylpiperidin-1-ium trifluoroacetate]
5 | 8.35 | C[N+]1(C)CCC(OC(=O)Nc2cc(CCC(=O)NCCCCCNC[C@H](O)c3ccc(O)c4[nH]c(=O)ccc34)ccc2-c2ccccc2)CC1 [Example 74, 4-({[5-(2-{[5-{[(2R)-2-hydroxy-2-(8-hydroxy-2-oxo-1,2-dihydroquinolin-5-yl)ethyl]amino}pentyl]carbamoyl}ethyl)-2-phenylphenyl]carbamoyl}oxy)-1,1-dimethylpiperidin-1-ium trifluoroacetate]
6 | 8.92 | C[N+]1(C)CCC(OC(=O)Nc2cc(OCCCCCCCCCNC[C@H](O)c3ccc(O)c4[nH]c(=O)ccc34)ccc2-c2ccccc2)CC1 [Example 60, 4-[({5-[(9-{[(2R)-2-hydroxy-2-(8-hydroxy-2-oxo-1,2-dihydroquinolin-5-yl)ethyl]amino}nonyl)oxy]-2-phenylphenyl}carbamoyl)oxy]-1,1-dimethylpiperidin-1-ium trifluoroacetate]

Further lines, the compound ahead of its results:

Row | SMILES | pEC50
7 | C[N+]1(C)CCC(OC(=O)Nc2cc(OCCOc3ccc(CCNC[C@H](O)c4ccc(O)c5[nH]c(=O)ccc45)cc3)ccc2-c2ccccc2)CC1 [Example 79, 4-{[(5-{2-[4-(2-{[(2R)-2-hydroxy-2-(8-hydroxy-2-oxo-1,2-dihydroquinolin-5-yl)ethyl]amino}ethyl)phenoxy]ethoxy}-2-phenylphenyl)carbamoyl]oxy}-1,1-dimethylpiperidin-1-ium trifluoro acetate] | 8.24
8 | C[N+]1(C)[C@@H]2CC(OC(=O)Nc3cc(CCC(=O)Nc4ccc5cc(CNC[C@H](O)c6ccc(O)c7[nH]c(=O)ccc67)ccc5c4)ccc3-c3ccccc3)C[C@H]1[C@@H]1O[C@@H]12 (stereo partly drawn) [Example 40, (1R,2R,4S,5S,7S)-7-({[5-(2-{[6-({[(2R)-2-hydroxy-2-(8-hydroxy-2-oxo-1,2-dihydroquinolin-5-yl)ethyl]amino}methyl)naphthalen-2-yl]carbamoyl}ethyl)-2-phenylphenyl]carbamoyl}oxy)-9,9-dimethyl-3-oxa-9-azatricyclo[3.3.1.0^2,4]nonan-9-ium trifluoroacetate] | 8.47
9 | C[N+]1(C)[C@@H]2CC(OC(=O)Nc3cc(CCCC(=O)Nc4ccc5cc(CNC[C@H](O)c6ccc(O)c7[nH]c(=O)ccc67)ccc5c4)ccc3-c3ccccc3)C[C@H]1[C@@H]1O[C@@H]12 (stereo partly drawn) [Example 35, (1R,2R,4S,5S,7S)-7-({[5-(3-{[6-({[(2R)-2-hydroxy-2-(8-hydroxy-2-oxo-1,2-dihydroquinolin-5-yl)ethyl]amino}methyl)naphthalen-2-yl]carbamoyl}propyl)-2-phenylphenyl]carbamoyl}oxy)-9,9-dimethyl-3-oxa-9-azatricyclo[3.3.1.0^2,4]nonan-9-ium trifluoroacetate] | 8.57
10 | C[N+]1(C)CCC(OC(=O)Nc2cc(/C=C/C(=O)Nc3ccc(CNC[C@H](O)c4ccc(O)c5[nH]c(=O)ccc45)cc3)ccc2-c2ccccc2)CC1 [Example 67, 4-[({5-[(1E)-2-{[4-({[(2R)-2-hydroxy-2-(8-hydroxy-2-oxo-1,2-dihydroquinolin-5-yl)ethyl]amino}methyl)phenyl]carbamoyl}-1-ethen-1-yl]-2-phenylphenyl}carbamoyl)oxy]-1,1-dimethylpiperidin-1-ium trifluoroacetate] | 9.40
11 | C[N+]1(C)CCC(OC(=O)Nc2cc(OCC(=O)Nc3ccc(CNC[C@H](O)c4ccc(O)c5[nH]c(=O)ccc45)cc3)ccc2-c2ccccc2)CC1 [Example 64, 4-({[5-(2-{[4-({[(2R)-2-hydroxy-2-(8-hydroxy-2-oxo-1,2-dihydroquinolin-5-yl)ethyl]amino}methyl)phenyl]carbamoyl}methoxy)-2-phenylphenyl]carbamoyl}oxy)-1,1-dimethylpiperidin-1-ium trifluoroacetate] | 7.42
12 | C[N+]1(C)CCC(OC(=O)Nc2cc(C(=O)OCCCCCCCNCC(O)c3ccc(O)c4[nH]c(=O)ccc34)ccc2-c2ccccc2)CC1 [Example 75, 4-{[5-({[(7-{[(2R)-2-hydroxy-2-(8-hydroxy-2-oxo-1,2-dihydroquinolin-5-yl)ethyl]amino}heptyl)oxy]carbonyl}-2-phenylphenyl)carbamoyl]oxy}-1,1-dimethylpiperidin-1-ium trifluoro acetate] | 9.30

Source: patent publication US9072734B2, “Quaternary ammonium salt compounds” (Teijin Pharma Limited, priority 2009, dated 2015)
